Assay results: patent US7615380B2, “Methods for modulating an immune response by modulating KRC activity” (President and Fellows of Harvard College, priority 2001, dated 2009)

How the values were obtained:
NIH 3T3 cells = assay: β-galactosidase cotransfection apoptosis assay in 3T3 cells; type: cell-based; conditions: TNFα 20 ng/ml
Method: 3T3 cells were cotransfected with CMV lacZ vector (300 ng per plate) and either empty expression vector or the expression vectors indicated (2 μg of each). Half of the transfected cultured cells were treated with TNFα (20 ng/ml) at 12 hours after the transfection and the other half left untreated. All the cells were fixed and stained at 36 hours after the transfection. The number of blue cells in each transfection was determined by counting six different fields. A representative experiment of three performed is presented.
β-galactosidase cotransfection assays for determination of cell death were performed as described (Hsu, et al.). Transfected NIH 3T3 cells were washed with PBS, fixed in PBS containing 3% paraformaldehyde for 10 min at 4° C., and washed with PBS. Fixed cells were stained overnight with XGal. The number of blue-stained cells was determined microscopically. The average number from one representative experiment of three is shown.

AP-1 = AP-1 luciferase/GFP reporter in 293T cells; type: cell-based, human
Method: FIG. 21(A) 293T cells were transfected with c-Jun and myc-KRCtr. 48 hours later, lysates were immunoprecipitated with anti-Myc antibody. Immunoprecipitates were probed by western blotting with anti-c-Jun antibody. FIG. 21(B) (left panel) 293T cells were cotransfected with c-Jun and full length His-KRC. 48 hours later, lysates were immunoprecipitated with anti-His antibody (DE8 Omniprobe) and precipitates were probed by western blotting with anti-c-Jun antibody. (right panel) In vitro translated and S35-labelled c-Jun and His-KRCtr were mixed and immunoprecipitated with anti-His antibody. Recovered c-Jun protein was visualized by autoradiography. FIG. 21(C) Jurkat or EL4 T cells were stimulated with PMA plus ionomycin for 45 minutes. Lysates were immunoprecipitated with anti-c-Jun antibody, and immunoprecipitates were probed with specific anti-KRC rabbit antisera. […] 24 hours later, Luciferase activity was determined as above. […] 24 hours later, luciferase activity was determined as above. […]
To examine the functional consequences of AP-1 degradation by KRC, cotransfection experiments in 293T cells with sense or antisense KRC together with a luciferase-tagged AP-1 reporter construct were performed. […] Conversely, cotransfection of antisense KRC increased AP-1 transactivation as evidenced by an increased number of GFP+ cells as well as an increase in the intensity of fluorescence per cell in. […]

IL-2 [1] = assay: IL-2 ELISA in stably transfected Jurkat clones; type: cell-based, human; conditions: stable Jurkat clones, PMA and ionomycin
Method: (§1) In panel A Jurkat T cells were stably transfected with vector (pEF) or KRC expression plasmids. Stable clones were stimulated for 18 hours with PMA (50 ng/mL) plus ionomycin (2 μM) and IL-2 production was measured by ELISA. In panel B Primary CD4+ T cells were activated for 36 hours and subsequently transduced with control (RV), KRC, or KRC dominant negative (ZAS2) bicistronic GFP-expressing retroviruses. GFP-positive cells were sorted and stimulated for 24 hours with anti-CD3 or anti-CD3/anti-CD28 antibodies and IL-2 production was measured by ELISA. In panel C CD4 T cells from KRC +/+ or −/− mice were stimulated with anti-CD3 (1.0 μg/mL)/CD28 (0.5 μg/mL) antibodies for 24 hours and IL-2 production was measured by ELISA. In panel D CD4 T cells from KRC +/+ or −/− mice were stimulated with anti-CD3/CD28 antibodies for 72 hours in the presence of 200 U/mL human IL-2. IFNγ production was measured by ELISA.
In this example, increased IL-2 production in Jurkat T cells stably expressing KRC was measured by ELISA. IL-2 promoter activation requires antigen receptor engagement plus an accessory signal usually supplied by an antigen presenting cell (Jain, J., et al. (1995) Curr. Biol. 7:333-342). […] G418 drug-resistant Jurkat clones were expanded and analyzed for IL-2 secretion following activation.

IL-2 [2] = assay: IL-2 ELISA in retrovirally transduced primary CD4+ T cells; type: cell-based; conditions: anti CD3 or anti CD3 plus CD28, 24 hours
Method: as §1
Activated CD4^+T cells were transduced by RV, RV-KRC or RV-ZAS2 as described previously (Szabo, S. J., et al. (2000) Cell 100:655-669).
Therefore, the effects of KRC overexpression were studied in primary CD4+T cells as well as in the Jurkat line using a retroviral delivery system to express KRC in primary CD4+T cells. […] The ability of each population to produce IL-2 following subsequent activation by anti CD3 or anti CD3 plus CD28 was measured at 24 hours post-stimulation. […]

In the case of “KRC: full-length KRC zinc finger protein (SEQ ID NO:2) overexpressed from an expression vector”, the “TNFα-induced apoptosis (TNF mediated cytotoxicity)” value (NIH 3T3 cells) is reported as “increase in TNF mediated cytotoxicity”, the “c-Jun and c-Jun plus c-Fos AP-1 activity enhancement” value (AP-1; AP-1 luciferase reporter) is reported as “approximately 5 fold” and the “AP-1 activity (luciferase-tagged AP-1 reporter)” value (AP-1; sense or antisense KRC cotransfection) is reported as “decreased stimulation of AP-1 activity”. For the same substance, the IL-2 production (IL-2 [1]) was “substantially greater amounts of IL-2” and the “IL-2 production, increase versus GFP control retrovirus” value (IL-2 [2]) was 3 to 4 fold.
